Measurements published in patent US10682371B2, “Small molecule conjugates specifically activated in tumor microenvironment for targeting and use thereof” (priority 2014, dated 2020).
*1 amine or outer side, *2 acyl side, *3 side chain or, on linkers, in order; H or OH if unused. Where a SMILES comes first, the peptide text is derived from it. [ ]: non-standard residue; d: D form. The star is where a group is joined. ξ: configuration not given here. Doxorubicin(3'-N) = COc1cccc2c1C(=O)c1c(O)c3c(c(O)c1C2=O)C[C@@](O)(C(=O)CO)C[C@@H]3O[C@H]1C[C@H](N*)[C@H](O)[C@H](C)O1; Dolaproine(all-ξ) = COC(C(C)C(=O)[*:2])C1CCCN1[*:1]; Dolaproine = CO[C@@H]([C@@H]1CCCN1)[C@@H](C)C(=O)O; Dil = CC[C@H](C)[C@H](NC)[C@@H](CC(=O)O)OC; X1 = CCC(C)C(C(CC(=O)[*:2])OC)N(C)[*:1]; PABC = O=C(OCc1ccc(N[*:1])cc1)[*:2]; X3 = C[C@@H](N*)[C@@H](O)c1ccccc1; MeOCH2CH2OCH2CO = COCCOCC(=O)*; NMeV = CN[CH](C(=O)O)C(C)C; X2 = CC(N*)C(O)c1ccccc1; Cbz = O=C(OCc1ccccc1)*

Tests used:
HEK293 cells = format: cell-based
Procedure: Toxicity detection method: a standard universal test program was used to perform the in vitro cytotoxicity test. 2500 HEK293 cells were cultured in a 96-well plate, and allowed to grow overnight. Cytotoxic compounds and their corresponding conjugated compounds were added into each well in different concentrations, cultivated with the cells at 37° C. for 72 hours, and then treated with MTT reagents. OD changes were read. The approximate multiples of the toxicity change were obtained by comparing the IC50 of the modified compounds to their corresponding cytotoxic compounds.

asparagine endopeptidase = biological target: T1, asparagine endopeptidase (Homo sapiens, UniProt Q99538)
T1 sequence (Q99538 26-323 limits assumed): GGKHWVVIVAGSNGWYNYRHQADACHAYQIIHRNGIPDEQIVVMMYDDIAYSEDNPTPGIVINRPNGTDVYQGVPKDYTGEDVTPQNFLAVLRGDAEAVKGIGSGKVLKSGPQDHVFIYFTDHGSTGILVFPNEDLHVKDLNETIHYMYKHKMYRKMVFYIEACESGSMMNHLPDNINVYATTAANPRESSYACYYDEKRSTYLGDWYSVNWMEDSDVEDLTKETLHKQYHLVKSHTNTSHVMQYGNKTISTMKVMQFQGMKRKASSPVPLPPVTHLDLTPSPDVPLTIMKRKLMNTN
Procedure: Reduction of reactant and increase of product were detected by HPLC, thereby comparing the activation efficiency of these compounds.
(§1) When R1 is 2-(2-Methoxyethoxy)Acetyl, and R3 is Ala, activation study and efficacy study were carried out by using compounds having different cleavable linker. The study methods are identical to those in Examples 10, 11 and 12. The in vitro activation efficiency was tested by asparagine endopeptidase and the tumor inhibition rate was tested by using human breast cancer MDA-MB231 model.

[1] = system: Human breast cancer MDA-MB231 cells; format: in vivo, nude mice; settings: for tumor inhibition rate (%): mouse, in vivo
Procedure: 1) Human breast cancer MDA-MB231 cells were purchased from American type culture collection (ATCC) and identified according the specification provided by ATCC. Cells were cultivated in […] (DMEM culture medium) containing 10% fetal bovine serum at 37° C. and 5% CO2. The cells were passaged for every three days and cells within the 15th passage were used.
2) Production of tumor. 5×10^6 MDA-MB231 cells were subcutaneously injected to the back of the nude mice. Mice were randomly grouped after the tumor reached at least 100 mm^3. Then treatment began and the day on which the treatment began was day 1.
3) Course of treatment. […] The drugs were administered once weekly for four weeks.
as §1, with “model. […]” for “model.”

[2] = system: Human breast cancer MDA-MB435 tumor tissue homogenate; format: biochemical; settings: Human breast cancer MDA-MB435 tumor tissue homogenate (30 μg/ml); 1 mg/ml compound
Procedure: (§2) At 37 °C, sample compounds were added into 100 μg acidized tumor tissue homogenates (pH6.0) in a concentration of 1 mg/ml.
(§3) At 37 °C, sample compounds were added into 100 μg acidized human breast cancer (MDA-MB435) tumor tissue homogenates (pH6.0) in a concentration of 1 mg/ml.
(§4) […], sample compounds were added into 100 μg acidized tumor tissue homogenates (pH6.0) in a concentration of 1 mg/ml.
as §3
(§5) At 37 °C, sample compounds were added into 100 μg acidized tumor tissue homogenates in a concentration of 1 mg/ml.
(§6) In the experiments, at 37 °C, compounds were added into proteases in 100 μg acidized tumor tissue homogenates in a concentration of 1 mg/ml. […] Meanwhile certain compounds produced in the screening were compared and their activation efficiency in same tissue was analyzed.
(§7) At 37° C., compounds were added into proteases in 100 μg acidized tumor tissue homogenates in a concentration of 1 mg/ml.

Human heart = format: biochemical; settings: Human heart homogenate; 1 mg/ml compound
[3] = system: Human chronic leukemia K562 tumor tissue homogenate; format: biochemical; settings: Human chronic leukemia K562 tumor tissue homogenate (30 μg/ml); 1 mg/ml compound
Procedure: as §2, §4, §5, §6, §7

[4] = system: Human colon cancer HT-29 tumor tissue homogenate; format: biochemical; settings: Human colon cancer HT-29 tumor tissue homogenate (30 μg/ml); 1 mg/ml compound
Procedure: as §2, §4, §5, §6, §7

[5] = system: Human liver cancer Hepg2 tumor tissue homogenate; format: biochemical; settings: Human liver cancer Hepg2 tumor tissue homogenate (30 μg/ml); 1 mg/ml compound
Procedure: as §2, §4, §5, §6, §7

[6] = system: Human non-small cell lung cancer A549 tumor tissue homogenate; format: biochemical; settings: Human non-small cell lung cancer A549 tumor tissue homogenate (30 μg/ml); 1 mg/ml compound
Procedure: as §2, §4, §5, §6, §7

[7] = system: Human pancreatic cancer Panc-1 tumor tissue homogenate; format: biochemical; settings: Human pancreatic cancer Panc-1 tumor tissue homogenate (30 μg/ml); 1 mg/ml compound
Procedure: as §2, §4, §5, §6, §7

[8] = system: Human renal cancer OS-RC-2 tumor tissue homogenate; format: biochemical; settings: Human renal cancer OS-RC-2 tumor tissue homogenate (30 μg/ml); 1 mg/ml compound
Procedure: as §2, §4, §5, §6, §7

D121 lung tumor cells = format: in vivo, C57 mice
Procedure: 1) D121 lung tumor cells were purchased from ATCC. Cells were cultivated in DMEM culture solution containing 10% fetal bovine serum at 37° C. and 5% CO2. The cells were passaged for every three days and cells within the 15th passage were used.
(§8) 2) Tumor immunization. 5×10^5 D121 lung cancer cells (purchased from ATCC) which were killed by irradiation were intraperitoneally injected to mice. The mice were injected for 3 times, once every two weeks. After immunization, mice were injected with tumor cells and the drugs were administered weekly for 4 weeks.
3) Production of tumor. At day 32, 10^6 live lung tumor cells were subcutaneously injected to the back of the C57 mice immunized by tumor. Treatment began when the tumor grew to 0.3-0.4 cm.
as §8, with “4 weeks. In table 16 below the immune group was immuned with D121 lung tumor cells and the group without dead D121 lung tumor cells was injected with physiological saline as controls.” for “4 weeks.”
3) Production of tumor. After immunization (4 weeks later), 10^6 live lung tumor cells were subcutaneously injected to the back of the C57 mice immunized by tumor. Treatment began when the tumor grew to 0.3-0.4 cm. Tumor size (mm^3) were noted and tumor inhibition rates were calculated.
as §8, with “4 weeks. In the table below the immune group was immuned with D121 lung tumor cells and the group without dead D121 lung tumor cells was injected with physiological saline as controls.” for “4 weeks.”
3) Production of tumor. At day 32, 10^6 live D121 lung tumor cells were subcutaneously injected to the back of the C57 mice immunized by tumor. Treatment began when the tumor grew to 0.3-0.4 cm.
1) D121 lung tumor cells were purposed from ATCC. Cells were cultivated in DMEM culture solution containing 10% fetal bovine serum at 37° C. and 5% CO2. The cells were passaged for every three days and cells within the 15th passage were used.

tumor CD8+ T cells = format: in vivo, C57 mice; settings: D121 immunized C57 mice, 13.2 μmol/kg; ratio of CD8 positive cells in CD45 positive cells of tumor
Procedure: (§9) 4) Analysis on tumor CD8+ T cells. The tumor tissue was homogenated and individual cells in the tumor were filtered, separated and washed by buffer twice, then cultivated with the leucocyte common antigen CD45-PE and CD8-FITC marked antibodies for 1 hour at ambient temperature. The cells were washed by phosphate buffer containing 1% fetal bovine serum twice and then analyzed for the ratio of the T lymphocyte antigen (CD8) positive cells in the leucocyte common antigen (CD45) positive cells by flow cytometry.
as §9, with “CD45-PE and T-lymphocyte antigen CD8-FITC marked” for “CD45-PE and CD8-FITC marked”, “flow cytometry. Increasement of the ratio indicates increased T lymphocyte cells and thus the animal immunity against the tumor was improved.” for “flow cytometry.”
as §9, with “cytometry. Increasement of the ratio indicates increased T lymphocyte cells and thus the animal immunity against the tumor was improved.” for “cytometry.”

CC[C@H](C)[C@@H]([C@@H](CC(=O)N1CCC[C@H]1[C@H](OC)[C@@H](C)C(=O)N[C@H](C)[C@@H](O)c1ccccc1)OC)N(C)C(=O)[C@@H](NC(=O)[C@H](C(C)C)N(C)C(=O)OCc1ccc(NC(=O)[C@H](CC(N)=O)NC(=O)[C@H](C)NC(=O)[C@H](C)NC(C)=O)cc1)C(C)C [AC-AAN-PABC-MMAE] (Ac-AAN[PABC][NMeV]V[Dil][Dolaproine]-X3)
Cytoxicity reduced (Multiples) (HEK293 cells): 15.5 Multiples | Cleaving efficiency (asparagine endopeptidase): 3.4% | tumor inhibition rate (%) [1]: 16.7%

CC[C@H](C)[C@@H]([C@@H](CC(=O)N1CCC[C@H]1[C@H](OC)[C@@H](C)C(=O)N[C@H](C)[C@@H](O)c1ccccc1)OC)N(C)C(=O)[C@@H](NC(=O)[C@H](C(C)C)N(C)C(=O)OCc1ccc(NC(=O)[C@H](CC(N)=O)NC(=O)[C@H](C)NC(=O)[C@H](C)NC(=O)OCc2ccccc2)cc1)C(C)C [CBZ-AAN-PABC-MMAE] (Cbz-AAN[PABC][NMeV]V[Dil][Dolaproine]-X3)
Cytoxicity reduced (Multiples) (HEK293 cells): 8.3 Multiples | Cleaving efficiency (asparagine endopeptidase): 2.6% | tumor inhibition rate (%) [1]: 9.7%

COCCOCC(=O)N[C@H](C(=O)N[C@@H](C)C(=O)N[C@@H](CC(N)=O)C(=O)Nc1ccc(COC(=O)N[C@H]2C[C@H](O[C@H]3C[C@](O)(C(C)=O)Cc4c(O)c5c(c(O)c43)C(=O)c3c(OC)cccc3C5=O)O[C@@H](C)[C@H]2O)cc1)C(C)O (stereo partly drawn) [Compound S4, 4-N—(N—(N—(N-2-(2-methoxyethoxy)acetyl-L-threonyl)-L-alanyl)-L-asparaginyl)-amino benzyl alcohol-daunorubicin-carbamate]
Cytoxicity reduced (Multiple) (HEK293 cells; HEK293, 72 hours, MTT, IC50 of modified compound compared to its corresponding cytotoxic compound, approximate multiples): 345 Multiple | Activation Efficiencies (%) [2]: 83.5% | Activation Efficiencies (%) (Human heart): 2.8% | Activation Efficiencies (%) [3]: 64.5% | Activation Efficiencies (%) [4]: 83.5% | Activation Efficiencies (%) [5]: 67.3% | Activation Efficiencies (%) [6]: 64.5% | Activation Efficiencies (%) [7]: 67.3% | Activation Efficiencies (%) [8]: 78.5% | Size of tumor (mm^3) Day 10 ([1]; MDA-MB231, nude mice, IV 13.2 μmol/kg once weekly for four weeks, Day 10): 95.56 ± 57.54 mm^3 | Size of tumor (mm^3) Day 24 ([1]; MDA-MB231, nude mice, IV 13.2 μmol/kg once weekly for four weeks, Day 24): 64.68 ± 43.56 mm^3 | Effect on tumor growth, in words ([1]; compared to control, camptothecin, capecitabine and daunorubicin groups): strong inhibitory effect on tumor growth | Size of tumor (mm^3) Day 18 (D121 lung tumor cells; D121 immunized C57 mice, 13.2 μmol/kg weekly, PDL1 antibody 5 μg/kg where combined, Day 18): 316.78 ± 109.98 mm^3 | Treatment effects on C57 mice, in words (D121 lung tumor cells; compared to the control group and the other treatment groups): greatly improved | CD8: CD45 (%) (tumor CD8+ T cells): 16.8%

CCC(C)C(C(CC(=O)N1CCCC1C(OC)C(C)C(=O)NC(C)C(O)c1ccccc1)OC)N(C)C(=O)C(NC(=O)C(C(C)C)N(C)C(=O)OCc1ccc(NC(=O)C(CC(N)=O)NC(=O)C(C)NC(=O)C(C)NC(=O)COCCOC)cc1)C(C)C (stereo not drawn) [PEG-AAN-PABC-MMAE] (MeOCH2CH2OCH2CO-AAN[PABC][NMeV]V[X1][Dolaproine(all-ξ)]-X2; configuration not given here)
Cytoxicity reduced (Multiples) (HEK293 cells): 22 Multiples | Cleaving efficiency (asparagine endopeptidase): 14.4% | tumor inhibition rate (%) [1]: 34.4%

COCCOCC(=O)N[C@@H](C)C(=O)N[C@@H](C)C(=O)N[C@@H](CC(N)=O)C(=O)N[C@@H](CC(C)C)C(=O)N[C@H]1C[C@H](O[C@H]2C[C@](O)(C(=O)CO)Cc3c(O)c4c(c(O)c32)C(=O)c2c(OC)cccc2C4=O)O[C@@H](C)[C@H]1O [PEG-AANL-DOX] (MeOCH2CH2OCH2CO-AANL-{Doxorubicin(3'-N)})
Cytoxicity reduced (Multiples) (HEK293 cells): 110.2 Multiples | Cleaving efficiency (asparagine endopeptidase): 66.5% | tumor inhibition rate (%) [1]: 60.3%
